Tested on: Kit+CD55+Lin-CD71lo BM cells
Test: ETD activation in cultured pre-ETD BM cells with S phase arrest
Type: cell-based, mouse
Experimental: To test whether the synchronization of ETD activation with S phase reflects mechanistic dependence, BM cells were isolated prior to the onset of ETD (Kit+CD55+Lin−CD71lo, FIG. 5, Panels f-h). The cells were cultured in the presence of Epo, which allowed them to activate the ETD, reflected first by the upregulation of CD71, followed by the upregulation of the erythroid cell surface marker Ter119, and induction of the beta-globin gene (Hbb-b1). […] The ensuing ETD activation proceeded with a 10-hour delay in the induction of CD71 and Hbb-b1 (FIG. 5, Panels g and h).

[1] = added for the first 10 hours of culture with Epo

C[C@@]1(CO)[C@H](O)CC[C@@]2(C)[C@H]1CC[C@H]1C[C@@H]3C[C@@]12CC[C@]3(O)CO [aphidicolin]
effect on S phase [1]: arrested S phase | effect on upregulation of CD71 [1]: paused upregulation of CD71 | delay in the induction of CD71 and Hbb-b1 (after removal, added for the first 10 hours): 10 h
